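Protocol summary: plate cells (96-well), add compound at 5 concentrations, incubate 48 h, interpolate endpoints linearly. Abbreviation: GI50, concentration required for 50% inhibition of growth.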 Activity calls are given as the source filed them. Cut-off read from the data, not from the text of the source: active = GI50 up to about 1.1 µM and inactive = higher.
Tests used:
Assay in all cases: inhibition of tumour cell growth, NCI panel, 48 h
KM12 = tested on: KM12
OVCAR-8 = tested on: OVCAR-8
HOP-62 = tested on: HOP-62
ACHN = tested on: ACHN
SNB-19 = tested on: SNB-19
SF-539 = tested on: SF-539
SK-MEL-5 = tested on: SK-MEL-5
EKVX = tested on: EKVX
MOLT-4 = tested on: MOLT-4
SK-MEL-28 = tested on: SK-MEL-28
SF-295 = tested on: SF-295
IGROV-1 = tested on: IGROV-1
K562 = tested on: K562
M14 = tested on: M14
UACC-62 = tested on: UACC-62
OVCAR-3 = tested on: OVCAR-3
OVCAR-4 = tested on: OVCAR-4
SR = tested on: SR
PC-3 = tested on: PC-3
SK-OV-3 = tested on: SK-OV-3

Compound | GI50 (KM12) | GI50 (OVCAR-8) | GI50 (HOP-62) | GI50 (ACHN) | GI50 (SNB-19) | GI50 (SF-539) | GI50 (SK-MEL-5) | GI50 (EKVX) | GI50 (MOLT-4) | GI50 (SK-MEL-28) | GI50 (SF-295) | GI50 (IGROV-1) | GI50 (K562) | GI50 (M14) | GI50 (UACC-62) | GI50 (OVCAR-3) | GI50 (OVCAR-4) | GI50 (SR) | GI50 (PC-3) | GI50 (SK-OV-3)
CC[C@@H]1/C=C/C=C/C[C@H](C)[C@@H](O)[C@](C)(O)C(=O)[C@H](C)[C@@H](O)[C@H](C)C(=O)[C@H](C)[C@@H](O)[C@H](C)/C=C/C(=O)O[C@H]2[C@@H](C)[C@@H](CC1)O[C@]1(O[C@H](CC(C)O)[C@H](C)CC1=O)[C@@H]2C (stereo not given in full) | 3.81 µM (inactive) | < 0.0025 µM (active) | 3.18 µM (inactive) | 2.65 µM (inactive) | < 0.0025 µM (active) | 4.41 µM (inactive) | < 0.0025 µM (active) | < 0.0025 µM (active) | 3.82 µM (inactive) | 6 µM (inactive) | < 0.0025 µM (active) | 5.22 µM (inactive) | < 0.0025 µM (active) | 3.14 µM (inactive) | 3.22 µM (inactive) | 2.92 µM (inactive) | 2.56 µM (inactive) | 4.13 µM (inactive) | < 0.0025 µM (active) | 5.66 µM (inactive)
COc1cccc(O)c1-c1cc(=O)c2c(O)c(OC)c(OC)c(OC)c2o1 [SKULLCAPFLAVONE II] | 12 µM (inactive) | 30.3 µM (inactive) | 17.5 µM (inactive) | 38.9 µM (inactive) | 29.2 µM (inactive) | 36.8 µM (inactive) | 19 µM (inactive) | 32.7 µM (inactive) | 29.2 µM (inactive) | 35.8 µM (inactive) | 21.1 µM (inactive) | 24.2 µM (inactive) | 14.5 µM (inactive) | 23.5 µM (inactive) | 14.7 µM (inactive) | 22.5 µM (inactive) | 30.3 µM (inactive) | 4.82 µM (inactive) | 15.3 µM (inactive) | 28.4 µM (inactive)
Cc1cc2ncn(CC(=O)O)c2cc1C | > 100 µM (inactive) | > 100 µM (inactive) | > 100 µM (inactive) | > 100 µM (inactive) | > 100 µM (inactive) | > 100 µM (inactive) | > 100 µM (inactive) | > 100 µM (inactive) | > 100 µM (inactive) | > 100 µM (inactive) | > 100 µM (inactive) | > 100 µM (inactive) | > 100 µM (inactive) | > 100 µM (inactive) | > 100 µM (inactive) | > 100 µM (inactive) | > 100 µM (inactive) | > 100 µM (inactive) | > 100 µM (inactive) | > 100 µM (inactive)
O=C1Nc2ccccc2/C1=N/Nc1ccccc1[N+](=O)[O-] | 33.8 µM (inactive) | 23.3 µM (inactive) | 19.3 µM (inactive) | 11.6 µM (inactive) | 48.5 µM (inactive) | 9.89 µM (inactive) | 40.9 µM (inactive) | 0.706 µM (active) | 51.4 µM (inactive) | 75.9 µM (inactive) | 56.9 µM (inactive) | 0.185 µM (active) | 66.5 µM (inactive) | 87.5 µM (inactive) | 63.8 µM (inactive) | 10.5 µM (inactive) | 25.5 µM (inactive) | 6.62 µM (inactive) | 57 µM (inactive) | 17.1 µM (inactive)
CC1C2CC(C/C2=N/O)C1(C)C (stereo not given) | > 100 µM (inactive) | > 100 µM (inactive) | > 100 µM (inactive) | > 100 µM (inactive) | > 100 µM (inactive) | > 100 µM (inactive) | > 100 µM (inactive) | > 100 µM (inactive) | > 100 µM (inactive) | > 100 µM (inactive) | > 100 µM (inactive) | > 100 µM (inactive) | > 100 µM (inactive) | > 100 µM (inactive) | > 100 µM (inactive) | > 100 µM (inactive) | > 100 µM (inactive) | > 100 µM (inactive) | > 100 µM (inactive) | > 100 µM (inactive)
CC1=NN(C(=O)c2ccccc2O)C(=O)/C1=C/c1ccco1 | 7.01 µM (inactive) | 2.59 µM (inactive) | 0.497 µM (active) | 2.26 µM (inactive) | 7.55 µM (inactive) | 0.818 µM (active) | 1.36 µM (inactive) | 3.06 µM (inactive) | 1.93 µM (inactive) | 14.6 µM (inactive) | 3.58 µM (inactive) | 1.26 µM (inactive) | 2.64 µM (inactive) | 1.93 µM (inactive) | 0.436 µM (active) | 0.65 µM (active) | 3.46 µM (inactive) | 2.94 µM (inactive) | 3.04 µM (inactive) | 5.7 µM (inactive)
O=C(O)CCN1CCN(CCC(=O)O)CCN(CCC(=O)O)CC1 | 69.7 µM (inactive) | > 100 µM (inactive) | > 100 µM (inactive) | > 100 µM (inactive) | > 100 µM (inactive) | > 100 µM (inactive) | 74 µM (inactive) | > 100 µM (inactive) | > 100 µM (inactive) | > 100 µM (inactive) | > 100 µM (inactive) | > 100 µM (inactive) | 36.3 µM (inactive) | > 100 µM (inactive) | > 100 µM (inactive) | > 100 µM (inactive) | > 100 µM (inactive) | 44.6 µM (inactive) | > 100 µM (inactive) | > 100 µM (inactive)
CC(=O)/C(=C\NC(N)=S)C(=O)Nc1ccccc1C | > 100 µM (inactive) | > 100 µM (inactive) | > 100 µM (inactive) | > 100 µM (inactive) | > 100 µM (inactive) | > 100 µM (inactive) | > 100 µM (inactive) | > 100 µM (inactive) | > 100 µM (inactive) | > 100 µM (inactive) | > 100 µM (inactive) | > 100 µM (inactive) | > 100 µM (inactive) | > 100 µM (inactive) | > 100 µM (inactive) | > 100 µM (inactive) | > 100 µM (inactive) | > 100 µM (inactive) | > 100 µM (inactive) | > 100 µM (inactive)
CCOc1cccc(/C=N/N=C2\C(=O)Nc3c(Cl)cc(Cl)cc32)c1O | > 100 µM (inactive) | 60.5 µM (inactive) | 30.4 µM (inactive) | > 100 µM (inactive) | > 100 µM (inactive) | 53.6 µM (inactive) | 64.4 µM (inactive) | 5.97 µM (inactive) | 28.4 µM (inactive) | 71.8 µM (inactive) | 62.5 µM (inactive) | 74.8 µM (inactive) | 41.1 µM (inactive) | 73.3 µM (inactive) | 58.2 µM (inactive) | 36.9 µM (inactive) | 62.8 µM (inactive) | 29.4 µM (inactive) | 44.2 µM (inactive) | > 100 µM (inactive)
CS(=O)(=O)O[C@H]1[C@H](O)c2ccccc2[C@@H]1N=[N+]=[N-] | > 100 µM (inactive) | > 100 µM (inactive) | > 100 µM (inactive) | > 100 µM (inactive) | > 100 µM (inactive) | > 100 µM (inactive) | > 100 µM (inactive) | > 100 µM (inactive) | > 100 µM (inactive) | > 100 µM (inactive) | > 100 µM (inactive) | > 100 µM (inactive) | > 100 µM (inactive) | > 100 µM (inactive) | > 100 µM (inactive) | > 100 µM (inactive) | > 100 µM (inactive) | > 100 µM (inactive) | > 100 µM (inactive) | > 100 µM (inactive)

Source: ChEMBL document CHEMBL1201862, “PubChem BioAssay data set” (2004)
